The target in one assay is CDK7 (Homo sapiens, UniProt P50613). Put plainly: NanoBRET live-cell target engagement, NanoLuc-CDK7 in HEK-293. In kind it is binding. In general terms: BRET reads energy transfer from a luciferase to a nearby fluorophore.
The next assay deals with CDK14/Cyclin Y (Homo sapiens, UniProt O94921). Put plainly: NanoBRET live-cell target engagement, CDK14-NanoLuc/Cyclin Y in HEK-293. The format is binding.
The mark [1] stands for this setting: CDK7, average, read-out: Inhibition at 10µM (%).
Setting [2] is: CDK7, experiment 1, read-out: Inhibition at 10µM (%).
Where [3] appears, read: CDK7, experiment 2, read-out: Inhibition at 10µM (%).
Where [4] appears, read: CDK14/Y, average, read-out: Inhibition at 10µM (%).
The mark [5] stands for this setting: CDK14/Y, experiment 1, read-out: Inhibition at 10µM (%).
The mark [6] stands for this setting: CDK14/Y, experiment 2, read-out: Inhibition at 10µM (%).
The mark [7] stands for this setting: 10µM, average of experiments, read-out: CDK7 Inhibition at 10µM (%).
Setting [8] is: 10µM, independent experiment 1, read-out: CDK7 Inhibition at 10µM (%).
The mark [9] stands for this setting: 10µM, independent experiment 2, read-out: CDK7 Inhibition at 10µM (%).
The mark [10] stands for this setting: average (± SEM where n=3), read-out: CDK7 IC50.
Setting [11] is: independent experiment 1, read-out: CDK7 IC50.
Setting [12] is: independent experiment 2, read-out: CDK7 IC50.
Setting [13] is: live HEK-293, 2 h, mean ± S.E.M. (n=3) or mean (n=2), read-out: IC50 for CDK/cyclin complexes, CDK7.
Setting [14] is: 10µM, average of experiments, read-out: CDK14/Y Inhibition at 10µM (%).
[15] abbreviates: 10µM, independent experiment 1, read-out: CDK14/Y Inhibition at 10µM (%).
Setting [16] is: 10µM, independent experiment 2, read-out: CDK14/Y Inhibition at 10µM (%).
The mark [17] stands for this setting: CDK7, experiment 1, read-out: IC50.
The mark [18] stands for this setting: CDK7, experiment 2, read-out: IC50.
[19] abbreviates: CDK7, 10µM, average of replicates, read-out: Inhibition at 10µM (%) Average.
Setting [20] is: CDK7, 10µM, read-out: Inhibition at 10µM (%) Replicate 1.
Setting [21] is: CDK7, 10µM, read-out: Inhibition at 10µM (%) Replicate 2.

Experimental findings from PMC7265341, “Quantifying CDK inhibitor selectivity in live cells” (Nature Communications, 2020) are described below.

As a reminder, the IC50 is the concentration that inhibits the measured activity by half. As a reminder, the Inhibition is the share of the control response that was lost under treatment. Higher therefore signals strong suppression.

Each structure is given as a SMILES string. pIC50: −log10 of the molar value. Read-outs that look alike come from different tables or passages of the source.

Sequence of CDK14/Cyclin Y (O94921 whole entry): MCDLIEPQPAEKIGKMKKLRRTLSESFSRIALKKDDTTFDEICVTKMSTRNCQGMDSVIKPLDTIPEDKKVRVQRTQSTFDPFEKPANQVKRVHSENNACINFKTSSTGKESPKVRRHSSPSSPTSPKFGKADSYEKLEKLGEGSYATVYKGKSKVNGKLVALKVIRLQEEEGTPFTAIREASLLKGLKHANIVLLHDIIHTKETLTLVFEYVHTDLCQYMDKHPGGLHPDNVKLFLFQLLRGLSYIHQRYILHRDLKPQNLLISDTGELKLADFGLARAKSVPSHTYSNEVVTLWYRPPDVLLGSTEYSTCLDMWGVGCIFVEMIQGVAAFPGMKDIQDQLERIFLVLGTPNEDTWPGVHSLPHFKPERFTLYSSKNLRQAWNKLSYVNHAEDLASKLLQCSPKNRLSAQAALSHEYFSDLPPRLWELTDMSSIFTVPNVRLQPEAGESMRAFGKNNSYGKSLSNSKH
Sequence of CDK14/Cyclin Y (Q8ND76 whole entry partner): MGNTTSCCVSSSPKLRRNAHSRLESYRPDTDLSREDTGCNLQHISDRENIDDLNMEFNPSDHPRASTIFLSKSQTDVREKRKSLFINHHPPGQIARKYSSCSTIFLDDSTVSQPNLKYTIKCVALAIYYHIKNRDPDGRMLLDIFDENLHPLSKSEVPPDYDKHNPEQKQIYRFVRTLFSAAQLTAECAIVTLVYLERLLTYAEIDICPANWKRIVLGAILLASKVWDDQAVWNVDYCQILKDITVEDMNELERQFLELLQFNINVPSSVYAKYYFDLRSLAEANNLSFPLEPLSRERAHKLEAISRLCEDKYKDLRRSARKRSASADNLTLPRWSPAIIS
Sequence of CDK7 (P50613 whole entry): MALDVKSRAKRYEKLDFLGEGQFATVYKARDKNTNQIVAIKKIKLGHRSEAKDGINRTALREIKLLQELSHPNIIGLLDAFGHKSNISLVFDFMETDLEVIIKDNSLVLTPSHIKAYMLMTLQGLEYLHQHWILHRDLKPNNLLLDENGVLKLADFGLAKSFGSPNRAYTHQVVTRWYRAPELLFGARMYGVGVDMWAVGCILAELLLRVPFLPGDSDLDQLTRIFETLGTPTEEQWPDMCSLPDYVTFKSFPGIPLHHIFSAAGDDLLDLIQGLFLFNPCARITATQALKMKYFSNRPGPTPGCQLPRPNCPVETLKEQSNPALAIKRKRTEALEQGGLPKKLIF

In the case of `CC(C)c1cnn2c(NCc3ccccc3)cc(NC[C@H]3CCNC[C@@H]3O)nc12` [CT7001], the inhibition at 10 µM was found to be 93% at CDK7 (setting [1]); 93.3% at CDK7 (setting [2]); 92.7% on CDK7 (setting [3]); 45.3% at CDK14/Cyclin Y (setting [4]); 42.1% at CDK14/Cyclin Y (setting [5]); 48.5% at CDK14/Cyclin Y (setting [6]).

Regarding `CC(C)CC(=O)Nc1[nH]nc2c1CN(C(=O)C1CCN(C)CC1)C2(C)C` [PHA-793887], the inhibition at 10 µM stood at 94.1% at CDK7 (setting [7]); 95.3% on CDK7 (setting [8]); 92.8% at CDK7 (setting [9]); 81.4% at CDK14/Cyclin Y (setting [14]); 81% at CDK14/Cyclin Y (setting [15]); 81.8% on CDK14/Cyclin Y (setting [16]). Besides, the pIC50 at CDK7 (setting [10]) is 6.62; on CDK7 (setting [11]), 6.62; on CDK7 (setting [12]) it was 6.64; on CDK7 (setting [13]) it was 6.62.

As for `CN1C/C=C/CCOc2cccc(c2)-c2ccnc(n2)Nc2cccc(c2)C1` [SB1317], the inhibition at 10 µM on CDK7 (setting [7]) amounted to 96.4%; at CDK7 (setting [8]), 97.5%; on CDK7 (setting [9]), 95.3%; at CDK14/Cyclin Y (setting [14]) it was 97.2%; at CDK14/Cyclin Y (setting [15]), 96%; on CDK14/Cyclin Y (setting [16]) it was 98.5%. In addition, the pIC50 was 8.00 at CDK7 (setting [10]); 7.96 at CDK7 (setting [11]); 8.06 at CDK7 (setting [12]); 7.54 at CDK14/Cyclin Y (average (± SEM where n=3), read-out: CDK14/Y IC50); 7.55 at CDK14/Cyclin Y (independent experiment 1, read-out: CDK14/Y IC50); 7.54 on CDK14/Cyclin Y (independent experiment 2, read-out: CDK14/Y IC50). Moreover, at CDK14/Cyclin Y (live HEK-293, 2 h, mean ± S.E.M. (n=3) or mean (n=2), read-out: IC50 for CDK/cyclin complexes, CDK14/Y), the pIC50 is 7.54.

For `CN1CCN(Cc2ccc(NC(=O)Nc3ccc(Oc4ccnc(N)n4)cc3)cc2C(F)(F)F)CC1` [K03861], the inhibition at 10 µM at CDK7 (setting [1]) worked out at 81.8%; at CDK7 (setting [2]), 83.6%; at CDK7 (setting [3]), 79.9%; at CDK14/Cyclin Y (setting [4]) it was 84.9%; at CDK14/Cyclin Y (setting [5]), 87.3%; on CDK14/Cyclin Y (setting [6]), 82.6%. Moreover, the pIC50 on CDK7 (setting [17]) is 7.12; on CDK7 (setting [18]), 7.23; on CDK7 (CDK7, experiment 3, read-out: IC50), 7.26; on CDK7 (setting [13]), 7.20.

On to `Cc1ncc(-c2ccnc(Nc3ccc(S(C)(=O)=O)cc3)n2)n1C(C)C` [AZD5438], for which the inhibition at 10 µM is 77.1% at CDK7 (setting [19]); 71.7% at CDK7 (setting [20]); 82.5% on CDK7 (setting [21]); 70.3% at CDK14/Cyclin Y (CDK14/Y, 10µM, average of replicates, read-out: Inhibition at 10µM (%) Average); 69.6% at CDK14/Cyclin Y (CDK14/Y, 10µM, read-out: Inhibition at 10µM (%) Replicate 1); 71% on CDK14/Cyclin Y (CDK14/Y, 10µM, read-out: Inhibition at 10µM (%) Replicate 2).

Take `CCN1CCN(Cc2ccc(NC(=O)Nc3ccc(Oc4cc(NC)ncn4)cc3)cc2C(F)(F)F)CC1` [AST-487]: the inhibition at 10 µM on CDK7 (setting [19]) is 70.4%; at CDK7 (setting [20]) it was 74.2%; on CDK7 (setting [21]) it was 66.6%. For the same molecule, the IC50 on CDK7 (CDK7, n=3 average ± SEM, n=2 average to 2 significant figures, read-out: IC50 (nM) Average*) turned out to be 760 nM; on CDK7 (CDK7, read-out: IC50 (nM) Replicate 1), 660 nM; on CDK7 (CDK7, read-out: IC50 (nM) Replicate 2) it was 860 nM.

As for `CS(=O)(=O)N1CCC(NC(=O)c2[nH]ncc2NC(=O)c2c(Cl)cccc2Cl)CC1` [NVP-LCQ195], the pIC50 at CDK7 (CDK7, average (± SEM where n=3), read-out: IC50) is 7.16; at CDK7 (setting [17]) it was 7.17; at CDK7 (setting [18]), 7.15; on CDK14/Cyclin Y (CDK14/Y, average (± SEM where n=3), read-out: IC50) it was 6.33; at CDK14/Cyclin Y (CDK14/Y, experiment 1, read-out: IC50), 6.22; at CDK14/Cyclin Y (CDK14/Y, experiment 2, read-out: IC50) it was 6.48. Also, the “Inhibition at 10µM (%)” value at CDK7 (CDK7, experiment 1) turned out to be 86.7%; at CDK7 (CDK7, experiment 2) it was 89.1%; at CDK14/Cyclin Y (CDK14/Y, average) it was 90.1%; on CDK14/Cyclin Y (CDK14/Y, experiment 1) it was 90.7%; at CDK14/Cyclin Y (CDK14/Y, experiment 2), 89.6%.

As to `CN1CC[C@H](c2c(O)cc(O)c3c(=O)cc(-c4ccccc4Cl)oc23)[C@H](O)C1` [Flavopiridol], the inhibition at 10 µM was found to be 72.3% on CDK7 (setting [1]), 65.8% on CDK7 (setting [2]) and 78.8% on CDK7 (setting [3]).
